The source of these data is ChEMBL document CHEMBL1152082, “Topographical requirements for delta opioid ligands: The synthesis and biological properties of a cyclic analogue of deltorphin I” (Bioorg Med Chem Lett, 1992).

Assay [1] concerns the target Mu-type opioid receptor (Rattus norvegicus, UniProt P33535). Nature of the assay: Binding affinity against Opioid receptor mu 1 with [3H]CTOP.
Assay [2] concerns the target Delta-type opioid receptor (Rattus norvegicus, UniProt P33533). Briefly: Binding affinity against delta receptor with [3H][p-Cl-Phe4]-DPDPE.
For assay [3], the target named is Mu-type opioid receptor (Cavia porcellus, UniProt P97266). Nature of the assay: Inhibitory activity against Guinea pig ileum smooth muscle. Format: functional, tissue-based.
Sequence of Mu-type opioid receptor (Cavia porcellus, UniProt P97266) (P97266 whole entry): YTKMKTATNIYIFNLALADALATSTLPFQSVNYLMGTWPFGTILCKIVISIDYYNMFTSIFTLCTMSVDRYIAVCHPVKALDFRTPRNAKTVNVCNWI
In assay [4] the target is Delta-type opioid receptor (Mus musculus, UniProt P32300). Nature of the assay: Inhibitory activity against Mouse vas deferens smooth muscle. It counts as functional, tissue-based, Muscle tissue.
Sequence of Delta-type opioid receptor (Mus musculus, UniProt P32300) (P32300 whole entry): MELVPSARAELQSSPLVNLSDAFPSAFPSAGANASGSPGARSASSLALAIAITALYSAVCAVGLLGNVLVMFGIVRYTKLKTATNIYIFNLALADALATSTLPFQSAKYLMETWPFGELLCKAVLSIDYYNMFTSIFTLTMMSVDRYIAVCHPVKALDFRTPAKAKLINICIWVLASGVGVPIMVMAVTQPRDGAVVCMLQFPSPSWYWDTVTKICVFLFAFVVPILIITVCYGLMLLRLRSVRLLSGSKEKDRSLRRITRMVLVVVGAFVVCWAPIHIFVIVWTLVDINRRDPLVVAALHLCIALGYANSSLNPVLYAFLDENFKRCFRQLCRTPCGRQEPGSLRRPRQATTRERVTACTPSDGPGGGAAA

Each structure is given as a SMILES string. Bridge positions count the residues as written; N and C are the ends. Square brackets hold non-standard residues; d marks the D form. Peptide text beside a SMILES is read from it.

Sequence of Mu-type opioid receptor (Rattus norvegicus, UniProt P33535) (P33535 whole entry): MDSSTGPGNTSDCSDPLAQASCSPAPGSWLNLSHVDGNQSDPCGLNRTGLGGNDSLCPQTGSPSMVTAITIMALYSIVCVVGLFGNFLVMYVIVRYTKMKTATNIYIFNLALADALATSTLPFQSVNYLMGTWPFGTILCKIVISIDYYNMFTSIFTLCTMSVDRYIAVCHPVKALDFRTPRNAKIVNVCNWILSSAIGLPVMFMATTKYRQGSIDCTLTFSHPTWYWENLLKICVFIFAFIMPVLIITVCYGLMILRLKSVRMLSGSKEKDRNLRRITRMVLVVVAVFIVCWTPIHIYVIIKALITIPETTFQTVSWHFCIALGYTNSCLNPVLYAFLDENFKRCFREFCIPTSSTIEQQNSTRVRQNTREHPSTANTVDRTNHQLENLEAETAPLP
Sequence of Delta-type opioid receptor (Rattus norvegicus, UniProt P33533) (P33533 whole entry): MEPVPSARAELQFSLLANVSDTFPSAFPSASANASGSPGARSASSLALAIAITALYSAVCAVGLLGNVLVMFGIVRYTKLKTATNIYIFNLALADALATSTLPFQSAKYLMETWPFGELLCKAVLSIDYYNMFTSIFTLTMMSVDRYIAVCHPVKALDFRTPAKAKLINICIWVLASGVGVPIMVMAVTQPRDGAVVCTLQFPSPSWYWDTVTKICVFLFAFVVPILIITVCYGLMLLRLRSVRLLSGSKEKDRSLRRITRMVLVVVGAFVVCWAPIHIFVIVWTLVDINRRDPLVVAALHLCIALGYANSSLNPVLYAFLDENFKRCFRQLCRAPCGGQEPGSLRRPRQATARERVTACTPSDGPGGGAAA

`CC(NC(=O)[C@@H](N)Cc1ccc(O)cc1)C(=O)N[C@@H](Cc1ccccc1)C(=O)N[C@@H](CC(=O)O)C(=O)N[C@H](C(=O)N[C@H](C(=O)NCC(N)=O)C(C)C)C(C)C` (single isomer, unassigned) [DELTORPHIN C]: the concentration for half-maximal inhibition (IC50) at Mu-type opioid receptor [1] was 2140 nM; in assay [2], 0.6 nM; at Mu-type opioid receptor [3], 2.89 nM.
Turning to `CC(C)[C@H](NC(=O)[C@@H]1CSSC[C@@H](NC(=O)[C@@H](N)Cc2ccc(O)cc2)C(=O)N[C@@H](Cc2ccccc2)C(=O)N[C@@H](CC(=O)O)C(=O)N1)C(=O)NCC(N)=O` (H-Y[dC]FDCVG-NH2; disulfide 2-5), the IC50 on Mu-type opioid receptor [1] was found to be 5.15 nM; in assay [4], 0.23 nM; in assay [2] it was 0.87 nM; on Mu-type opioid receptor [3], 2.98 nM.
